# Tests used:
# [1] = test system: Human vaginal squamous cell carcinoma A-431 cells; test: In vitro antitumor test (trypan blue exclusion viable cell count), A-431; format: cell-based
# Procedure: (§1) An appropriate amount of NFD was dissolved in DMSO to give a 1.0 mg/ml stock solution, which was diluted as necessary before use.
# (§2) The following cells in the late logarithmic phase were harvested after treatment with trypsin (containing 0.25% trypsin and 0.02% EDTA; 37° C., 3 min) and used in the test: human lung adenocarcinoma cell lines A-549, VMRC-LCD and SK-LU-1, human lung squamous cell carcinoma Calu-1 cells, human colon adenocarcinoma WiDr cells, human prostate cancer LNCaP cells, human vaginal squamous cell carcinoma A-431 cells, human cervical carcinoma HeLa cells, human cholangiocarcinoma HuCC-T1 cells, mouse skin cancer melanoma B16 (M4) cells, human pancreatic carcinoma ASPC-1 cells, human neuroblastoma IMR-132 cells, human lung small cell carcinoma SCCH-194 cells, human uninary bladder carcinoma T24 cells, human renal cell carcinoma […] cells, human gastric cancer NUGC-2 cells, human thyroid carcinoma 8305C cells, human hepatoma HUH-7 cells, human ovarian carcinoma TYK-nu cells and human chorio carcinoma BeWo cells. […] These cells were plated onto a 96-well microplate at a density of 5-10×10^3 cells/cm^2 using DMEM or RPMI-1640 medium containing 10% fetal bovine serum and cultured for 24 hours in a conventional manner, after which a pre-determined amount of NFD dissolved in DMSO was added to each well. […]
# [2] = test system: malignant tumor cells; test: In vitro antitumor test, panel of malignant tumor cells; format: cell-based, human and mouse
# Procedure: as §1
# The antitumor effect of NFD on human cancer cells and mouse cancer cells was assessed according to the following methods.
# as §2, with “cells. Suspension cultures of human breast cancer MRK-nu-1 cells, human malignant B-cell lymphoma cells and human chronic myelogenous leukemia K562 cells were used to harvest the cells to be used in the test.” for “cells.”, “well. Cultivation was continued, and the number of viable cells was counted after 24, 48 and 72 hours.” for “well.”
# Growth inhibitory action and lethal activity of NFD on various types of malignant tumor cells and normal human cells listed above were evaluated by counting the number of viable cells in each well of the 96-well microplate. […]
# [3] = test system: Human chorio carcinoma BeWo cells; test: In vitro antitumor test (trypan blue exclusion viable cell count), BeWo; format: cell-based
# Procedure: as §1, §2
# [4] = test system: Human pancreatic carcinoma ASPC-1 cells; test: In vitro antitumor test (trypan blue exclusion viable cell count), ASPC-1; format: cell-based
# Procedure: as §1, §2
# [5] = test system: Mouse melanoma B16 (M4) cells; test: In vitro antitumor test (trypan blue exclusion viable cell count), B16 (M4); format: cell-based
# Procedure: as §1, §2
# [6] = test system: human lung cancer cells; test: In vitro antitumor test, human lung cancer cells (FIGS. 1-4); format: cell-based
# Procedure: as §1, §2
# [7] = test system: Normal human tracheal epithelial cells; test: In vitro growth test on normal cells, tracheal epithelial cells; format: cell-based
# Procedure: as §1, §2
# [8] = 72 h, three days exposure, read-out: LD50 (IC50), 50% growth-inhibitory dose
smiles,measurement,setting,value
"CC(O)c1cc2c(o1)C(=O)c1cccc(O)c1C2=O (stereo not drawn) [NFD, 2-(1-hydroxyethyl)-5-hydroxynaphtho[2,3-b]furan-4,9-dione]",IC50,[1]; [8],0.021 µg/mL
same,IC (almost complete),"[1]; FIG. 7, read-out: concentration inhibiting growth almost completely",0.0279 µg/mL
same,selective toxicity to tumor cells,[2]; 23 listed tumor cells,exhibits selective toxicity
same,growth inhibition of tumor cells,"[2]; at low concentrations, 23 listed tumor cells",remarkably inhibits the growth
same,IC50,[2]; read-out: LD50 (IC50) range over malignant tumor cells,0.0055 to 0.025 µg/mL
same,IC50,[3]; [8],0.018 µg/mL
same,IC (almost complete),"[3]; FIG. 23, read-out: concentration inhibiting growth almost completely",0.0343 µg/mL
same,IC50,"[4]; ASPC1, 72 h, ASPC-1, three days exposure, read-out: LD50 (IC50), 50% growth-inhibitory dose",0.017 µg/mL
same,IC (almost complete),"[4]; ASPC1, FIG. 13, read-out: concentration inhibiting growth almost completely",0.0335 µg/mL
same,IC50,"[5]; 72 h, B16 (M4), three days exposure, read-out: LD50 (IC50), 50% growth-inhibitory dose",6.7 ng/mL
same,IC (almost complete),"[5]; FIG. 10, read-out: concentration inhibiting growth almost completely",0.0112 µg/mL
same,concentration causing necrosis in almost all tumor cells,[6],33.5 to 55.4 ng/mL
same,IC (almost complete),"[6]; Homo sapiens, read-out: concentration inhibiting growth almost completely",0.0112 to 0.0168 µg/mL
same,adverse effects on growth of normal cells,"[7]; FIG. 25, at concentrations which cause necrosis in tumor cells",no adverse effects
same,IC50,"[7]; Homo sapiens, Epithelial cell, 72 h, normal tracheal epithelial cells, three days exposure, read-out: LD50 (IC50), 50% growth-inhibitory dose",> 0.055 µg/mL
